In US20230173764A1, “SURGICAL SYSTEM AND METHODS OF USE” (priority 2021, published 2023):

What was measured:
[1] = system: fibrinolysis; experiment: concentrations effective against fibrinolysis; conditions: one tenth of the doses used in the non-GLP acute porcine study
Source text: However, in some embodiments, however, higher doses of tranexamic acid are used for topical applications to account for tranexamic acid being widely distributed throughout the extracellular and intracellular compartments when given preoperatively.

[2] = given preoperatively; cited from earlier work
[3] = system: myofibroblast formation; conditions: Ajmal et al. (2003); cited from earlier work

Row | Structure (SMILES) | effective in reversing fibrinolysis [1] | time to reach plasma concentrations [2] | myofibroblast formation [3]
1 | NC[C@H]1CC[C@H](C(=O)O)CC1 [tranexamic acid] | effective | 5 to 15 min | 
2 | O=S(=O)([O-])CCS.[Na+] [MESNA, sodium 2-mercaptoethane sulfonate] |  |  | diminish myofibroblast formation
